Reference: patent publication EP1897937A1, “Method of culturing NPCs” (NeuroProgen GmbH Leipzig, priority 2006, dated 2008)

Columns and labels:
Format in all cases: cell-based, human
[1] = system: hmNPCs; experiment: Short-term proliferation: Ki67/nestin immunostaining; conditions: 100 µM; 5 subsequent days
Description: To determine long-term proliferation, […] were plated and expanded for 2 passages with or without addition of various agents (see below) to the custom expansion media containing the growth factors EGF and FGF2. Different fetal midbrain tissues were included in this study. At the end of the proliferation period, differentiation of […] was induced via replacement of expansion media with mitogen-free media containing 1% FCS, 5 μM forskoline (Sigma-Aldrich Chemie GmbH Munich, Germany), and 100 pg/ml IL-1β (Sigma). The differentiation and expansion media were supplemented with different drugs as appropriate. Prior to immunocytochemistry or protein extraction, […] were allowed to differentiate for 1 week. To determine short-term proliferation via Ki67 immunostaining, the cells were seeded into 24-well plates (70,000 cells/well) and left overnight to rest. P2 receptor agonists (ATP, UTP, ATP + UTP, ADP, ADPβS) were supplied daily for 5 consecutive days. Ki67/nestin double-positive cells were counted in 8 randomly selected fields of nucleotide-treated or untreated samples. For the assessment of MAPK phosphorylation the cells were kept free of mitogens for 2 d prior to addition of the MEK-inhibitor in expansion media. In addition, the MEK-inhibitor was added during the differentiation period 15 min before UTP administration. […] Cover-slips were mounted onto glass slides and examined under a fluorescence microscope (Zeiss Axiovert 200). Acquisition of the cells was performed using the Image-analysis software AxioVision 4 (Carl Zeiss AG, Jena, Germany). The following primary antibodies were used for immunofluorescence: rabbit polyclonal anti-β-tubulin III (anti-Tuj1) antibody, rabbit polyclonal anti-tyrosine hydroxylase antibody , mouse monoclonal anti-nestin antibody (Pharmingen, San Diego, CA, USA), rabbit polyclonal anti-Ki67 antigen antibody (Novocastra Laboratories Ltd, Newcastle upon Tyne, UK). Estimation of the TH-positive cell numbers was performed by counting of cells among approximately 1000 differentiated cells in total within 6 randomly selected fields.

[2] = system: hmNPCs; experiment: Cell death / cell cycle assay (propidium iodide, FACS); conditions: for Sub-G1 / G0/G1 / G2/M / S: 48 h, 100 µM nucleotides, pretreated 30 minutes with 10 µM suramin or 100 µM PPADS where named; for G0/G1 / G2/M / S: mean ± SEM, n = 3; for block of the anti-proliferative effects of ATP, ADP and ADPβS: 30 minutes pretreatment, 10 µM suramin or 100 µM PPADS
Description: Untreated (control) and treated exponentially growing […] were prepared for cell cycle analysis by lysing cells in 300 μl of hypotonic lysis buffer (0.1% sodium citrate, 0.1% Triton X-100, and 50 μg/ml propidium iodide [PI]). […] Histograms of DNA content were acquired using the CellQuest software. […] For data analysis and correction of the background, noise histograms were processed with the ModFit LT software (Verity, Turramurra, Australia).

[3] = system: hmNPCs; experiment: Dopaminergic differentiation: TH protein expression by Western blot; conditions: for expression of TH, pre-treatment before UTP: 10 µM pre-treatment, 100 µM UTP, one week of differentiation
Description: (§1) To determine long-term proliferation, hmNPCs were plated and expanded for 2 passages with or without addition of various agents (see below) to the custom expansion media containing the growth factors EGF and FGF2. Different fetal midbrain tissues were included in this study. At the end of the proliferation period, differentiation of hmNPCs was induced via replacement of expansion media with mitogen-free media containing 1% FCS, 5 µM forskoline (Sigma-Aldrich Chemie GmbH Munich, Germany), and 100 pg/ml IL-1β (Sigma). The differentiation and expansion media were supplemented with different drugs as appropriate. Prior to immunocytochemistry or protein extraction, hmNPCs were allowed to differentiate for 1 week. To determine short-term proliferation via Ki67 immunostaining, the cells were seeded into 24-well plates (70,000 cells/well) and left overnight to rest. P2 receptor agonists (ATP, UTP, ATP + UTP, ADP, ADPβS) were supplied daily for 5 consecutive days. Ki67/nestin double-positive cells were counted in 8 randomly selected fields of nucleotide-treated or untreated samples. For the assessment of MAPK phosphorylation the cells were kept free of mitogens for 2 d prior to addition of the MEK-inhibitor in expansion media. In addition, the MEK-inhibitor was added during the differentiation period 15 min before UTP administration.
(§2) UTP, UDP, ATP, ADP, ADPβS and suramin were purchased from Sigma (Sigma-Aldrich Chemie GmbH Munich, Germany). UTP and UDP were applied at different concentrations (1 µM, 10 µM, 100 µM), ATP at 100 µM, ADP at 100 µM, and ADPβS at100 µM. During expansion of the cells, the nucleotides were renewed once a week with every media change, unless otherwise stated. They were applied once at the beginning of the differentiation period. The P2 receptor antagonist suramin (10 µM) was added to expansion media 30 min prior to addition of UTP (100 µM). The stock solution of the MEK1/2 inhibitor U0126 (Promega Corporation, Mannheim, Germany) was prepared in dimethyl sulfoxide (DMSO) at a concentration of 10 mM. The stock solution was then diluted in 0.1 M PBS to obtain a concentration of 1 mM. MEK inhibitor (final concentration 10 µM) was added to mitogen-free expansion media, 15 min before UTP treatment (1 µM) of hmNPCs.
(§3) In order to prepare protein extracts, hmNPCs were collected, washed with ice-cold PBS and lysed in buffer [10 mM HEPES-KOH (pH 7.9), 10 mM KCI, 1.5 mM MgCl2, 0.1% NP-40], supplemented with protease inhibitor cocktail (Roche). After a brief centrifugation at 4°C/10 000×g, protein concentrations and protein yield from extracts were determined using the Bradford method (Bio-Rad, Hercules, CA, USA). To preserve the phosphorylation state of proteins, extracts for the MAPK experiment were obtained using the PhosphoSafe™ extraction reagent containing phophatase inhibitors (Novagen). […] Membranes were blocked with 5% (wt/vol) nonfat dry milk in PBS-T (PBS, 0.1% (vol/vol) Tween 20) for 2 h at room temperature and subsequently incubated with the desired primary antibody (diluted in PBS containing 5% non-fat milk and 0.1% Tween 20) overnight at 4 °C with gentle agitation. The membrane was incubated with horseradish peroxidase-coupled secondary antibody for 1 h at room temperature. Chemiluminescence detection was performed by incubating the membranes with SuperSignal-Dura substrate (Pierce Biotechnology, Rockford, U.S.A) followed by analysis on a CCD cooling camera (Fuji LAS-1000plus). The chemiluminescence was quantified using the AIDA, two-dimensional densitometry software (Raytest lsotopenmeb, Straubenhardt, Germany).

[4] = system: hmNPCs; experiment: Long-term proliferation: number of living cells (hemocytometer, trypan blue exclusion)
Description: as §1, §2
Cell counting of control (untreated) and treated hmNPCs was performed using a hemocytometer. Adherent cells were collected by detachment with accutase™ (PAA Laboratories, Pasching, Austria) for 10 min at 37°C. […] The number of total and trypan blue-positive cells was then determined by counting at least 300 cells per sample in a hemocytometer.

[5] = system: hmNPCs; experiment: Dopaminergic differentiation: counting of TH-positive cells by immunocytochemistry
Description: as §1, §2
Expanded or one week differentiated hmNPCs were fixed with 4% paraformaldehyde in PBS for 10 min at room temperature and washed with PBS, counterstained with the DNA-binding dye 4'-6-Diamidino-2-phenylindole (DAPI, 2 µg/ml in PBS) for 15 min at room temperature, washed twice in PBS followed by incubation in blocking buffer (10% FCS, 0.2% Triton-X 100 in PBS, pH 7.2) for 30 min at room temperature. After incubation with a primary antibody (over night at 4°C in blocking buffer), the cells were incubated with fluorescent secondary antibodies, Alexa Fluor® 488 conjugate or Alexa Fluor® 594 conjugate (Molecular Probes, Eugene, USA). Cover-slips were mounted onto glass slides and examined under a fluorescence microscope (Zeiss Axiovert 200). Acquisition of the cells was performed using the Image-analysis software AxioVision 4 (Carl Zeiss AG, Jena, Germany). The following primary antibodies were used for immunofluorescence: rabbit polyclonal anti-β-tubulin III (anti-Tuj1) antibody, rabbit polyclonal anti-tyrosine hydroxylase antibody , mouse monoclonal anti-nestin antibody (Pharmingen, San Diego, CA, USA), rabbit polyclonal anti-Ki67 antigen antibody (Novocastra Laboratories Ltd, Newcastle upon Tyne, UK). Estimation of the TH-positive cell numbers was performed by counting of cells among approximately 1000 differentiated cells in total within 6 randomly selected fields.

[6] = system: ERK1/2; experiment: ERK1/2 (MAPK) phosphorylation by Western blot; conditions: for expression of phosphorylated ERK1/2, pre-treatment before UTP: 10 µM pre-treatment, 100 µM UTP, one week of differentiation
Description: as §1, §2
as §3, with “Chemiluminescence detection was performed by incubating the membranes with SuperSignal-Dura substrate (Pierce Biotechnology, Rockford, U.S.A) followed by analysis on a CCD cooling camera (Fuji LAS-1000plus).” left out

[7] = system: hmNPCs; experiment: Western blot of proliferation marker PCNA and survival marker Bcl-2; conditions: 100 µM antagonist, 2 times during the 2 weeks proliferation period, before 1 µM UTP
Description: as §1
In order to prepare protein extracts, hmNPCs were collected, washed with ice-cold PBS and lysed in buffer [10 mM HEPES-KOH (pH 7.9), 10 mM KCI, 1.5 mM MgCl2, 0.1% NP-40], supplemented with protease inhibitor cocktail (Roche). After a brief centrifugation at 4°C/10 000×g, protein concentrations and protein yield from extracts were determined using the Bradford method (Bio-Rad, Hercules, CA, USA). To preserve the phosphorylation state of proteins, extracts for the MAPK experiment were obtained using the PhosphoSafe™ extraction reagent containing phophatase inhibitors (Novagen). […] The chemiluminescence was quantified using the AIDA, two-dimensional densitometry software (Raytest lsotopenmeb, Straubenhardt, Germany). […]

[8] = system: hmNPCs; experiment: Dopaminergic differentiation: TH protein expression by Western blot; conditions: pre-treatment with 100 µM antagonist; UTP 1 µM in expansion, 100 µM in differentiation
[9] = 10 µM antagonist 30 min before 100 µM UTP

In the case of `Nc1ncnc2c1ncn2[C@@H]1O[C@H](COP(=O)(O)OP(O)(O)=S)[C@@H](O)[C@H]1O` [ADPβS], the Ki67-positive cells [1] is reported as “strong reduction”, the Sub-G1 [2] is reported as 0.82% and the G0/G1 [2] is reported as 84.21 ± 0.06%. For the same molecule, the G2/M [2] was 3.61 ± 0.01% and the S [2] was 12.17 ± 0.05%.

For `O=c1ccn([C@@H]2O[C@H](COP(=O)(O)OP(=O)(O)O)[C@@H](O)[C@H]2O)c(=O)[nH]1` [UDP, uridine 5'-diphosphate], the TH protein levels ([3]; 100 µM during the differentiation period) was “no increase”, the activity at 1 µM ([3]; Homo sapiens, 1 µM during the differentiation period, read-out: TH expression in immunoblots) was 194 ± 7% and the activity at 10 µM ([3]; Homo sapiens, 10 µM during the differentiation period, read-out: TH expression in immunoblots) was 180 ± 8%.

With `Nc1ncnc2c1ncn2[C@@H]1O[C@H](COP(=O)(O)OP(=O)(O)O)[C@@H](O)[C@H]1O` [ADP, adenosine diphosphate] the “number of living cells” value ([4]; 100 µM each, 2 weeks in expansion media, on coapplication ADP 30 min before UTP, 20160 min) was 4 ± 0.5%, the Ki67-positive cells [1] was “strong reduction” and the activity at 100 µM ([5]; Homo sapiens, 168 h, 100 µM each, once, only during the differentiation period of one week, read-out: number of TH-positive (dopaminergic) cells as compared to control) was 11 ± 3%. For the same molecule, the Sub-G1 [2] was 0.54%, the G0/G1 [2] was 84.64 ± 0.41% and the G2/M [2] was 3.72 ± 0.20%. For the same molecule, the S [2] was 11.63 ± 0.2%.

For `Cc1ccc(C(=O)Nc2ccc(S(=O)(=O)O)c3cc(S(=O)(=O)O)cc(S(=O)(=O)O)c23)cc1NC(=O)c1cccc(NC(=O)Nc2cccc(C(=O)Nc3cc(C(=O)Nc4ccc(S(=O)(=O)O)c5cc(S(=O)(=O)O)cc(S(=O)(=O)O)c45)ccc3C)c2)c1` [suramin], the “number of TH-positive cells, antagonist before UTP” value [5, 9] was “reduced”, the “TH protein content, antagonist before UTP” value [3, 9] was “decreased” and the “expression of TH, pre-treatment before UTP” value [3] was “remained at basal levels”. The “expression of phosphorylated ERK1/2, pre-treatment before UTP” value [6] was “remained at basal levels” and the “block of the anti-proliferative effects of ATP, ADP and ADPβS” value [2] was “failed to block”.

For `N#CC(=C(/N)Sc1ccccc1N)/C(C#N)=C(\N)Sc1ccccc1N` [U0126], the “proliferation of hmNPCs” value ([4]; data not shown) was “reduced”, the “expression of TH, pre-treatment before UTP” value [3] was “remained at basal levels” and the “UTP-induced phosphorylation of ERK1/2, inhibitor pretreatment” value ([6]; 10 µM inhibitor for 15 min before 1 µM UTP) was “abrogated”. For the same molecule, the “expression of phosphorylated ERK1/2, pre-treatment before UTP” value [6] was “remained at basal levels”.

With `Cc1nc(N=Nc2ccc(S(=O)(=O)O)cc2S(=O)(=O)O)c(COP(=O)(O)O)c(C=O)c1O` [PPADS, Pyridoxal-phosphate-6-azophenyl-2',4'-disulphonic acid] the “PCNA expression, antagonist before UTP” value [7] was “reduced the PCNA expression to control levels”, the “block of the anti-proliferative effects of ATP, ADP and ADPβS” value [2] was “failed to block” and the “TH expression increase by UTP, antagonist pre-treatment” value [8] was “completely blocked”.

For `Nc1ncnc2c1ncn2[C@@H]1O[C@H](COP(=O)(O)OP(=O)(O)OP(=O)(O)O)[C@@H](O)[C@H]1O` [ATP, adenosine triphosphate], the Ki67-positive cells [1] was “strong reduction”, the Sub-G1 [2] was 0.56% and the G0/G1 [2] was 91.69 ± 1.19%. The G2/M [2] was 1.42 ± 0.11% and the S [2] was 6.89 ± 1.17%.
